One assay concerns the target T1, DPP-IV (Rattus norvegicus, UniProt P14740).
T1 construct: The coagulated blood was centrifuged at 3,000 rpm for 20 minutes to separate serum for use in the experiment; from tissue; host or cells: rat serum (blood from the crural aorta, coagulated and centrifuged)
The experiment in a line: Test for inhibitory action against DPP-IV (rat serum, Gly-Pro-AMC fluorescence). Type of assay: biochemical. The settings on record: Gly-Pro-AMC 50 μmol/L, pH 7.8, room temperature 20 minutes. The procedure:
Under mild anesthesia with diethylether, a rat was incised at lower left side of the limb, and the crural aorta was cut and blood was collected. The collected blood was immediately ice-cooled. The coagulated blood was centrifuged at 3,000 rpm for 20 minutes to separate serum for use in the experiment. As reaction buffer, an aqueous solution containing HEPES (final concentration of 25 mmol/L) and sodium chloride (final concentration of 140 mmol/L) was prepared so as to give a final pH of 7.8, and used after addition of BSA (final concentration of 1%). An assay was conducted using a black, flat-bottomed 96 well plate. A test sample (2 μL) was added to each well, and the sample was added with rat serum (25 u L) and reaction buffer (25 u L) containing magnesium chloride (80 mmol/L), and the mixture was left stand at room temperature for 5 minutes. Then, a reaction was initiated by the addition of 50 u L of a solution of Gly-Pro-AMC (AMC: 7-amino-4-methylcoumarin) (final concentration of 50 μmol/L) to each well, and the mixture was left stand in the dark at room temperature for 20 minutes. AMC, which was released by DPP-IV activity, was quantified by measurement of fluorescence at 460 nm which was excited at 390 nm. DPP-IV activity was calculated according to the following equation:
Inhibitory activity against DPP-IV=100×{1−(Fs−F0)/(F100−F0)}
F100: Fluorescence intensity of AMC with addition of serum
F0: Fluorescence intensity of AMC without addition of serum
Fs: Fluorescence intensity of AMC with addition of a sample and serum

Assay [1] concerns Wistar male rats. The experiment in a line: Suppressing effect on increase of blood sugar after oral glucose loading (Test Example 3, glucose oxidase method). Type of assay: in vivo, rat. The settings on record: Wistar male rats fasted 24 hours, 1 mg/kg po; for Blood-sugar level, 0 minute: 0 minute (before glucose loading); for Blood-sugar level, 30 minutes after glucose loading: glucose 2 g/kg po. The procedure:
Blood-sugar levels of Wistar male rats (10-week old, Charles river) fasted for 24 hours were measured. A test compound was orally administered to the rats in a dose of 1 mg/kg, and then immediately glucose (2 g/kg) was orally administered to the rats. After 30 minutes from the glucose loading, blood-sugar levels were further measured to evaluate suppressing effects of test compounds on increase of blood sugar. The sugar levels were measured by the glucose oxidase method [Clin. Chem., 6, 466 (1960); J. Clin. Path., 22, 246 (1969); Clin. Chem. Acta, 40, 115 (1972); Clin. Chem., 20, 606 (1974) or the like]. The test compounds were dissolved in 0.5% methylcellulose 400 for administration.

Assay [2] deals with Wistar male rats. The experiment in a line: Suppressing effect on increase of blood sugar after oral glucose loading (Test Example 2). In kind it is in vivo, rat. As to conditions: Wistar male rats fasted 24 hours, 30 mg/kg po. As for the experimental part:
Blood-sugar levels of Wistar male rats (9-week old, Charles river) fasted for 24 hours were measured. A test compound was orally administered to the rats in a dose of […], and then immediately glucose (2 g/kg) was orally administered to the rats. After 30 minutes from the glucose loading, blood-sugar levels were further measured to evaluate suppressing effects of test compounds on increase of blood sugar. The blood-sugar levels were measured by a portable apparatus for measurement of blood sugar [Blood glucose meter, Dexter-Z (Bayer. Sankyo, Tokyo)]. The test compounds were dissolved in 0.5% methylcellulose 400 for administration. The results are shown in Table 3 (** indicates p<0.01 in Student's t-test).

The values that follow come from patent publication US20040180925A1, “Dipeptidylpeptidase-IV inhibitor” (priority 2000, published 2004).

Structures can show the parent of a compound that is named as a salt.

T1 sequence (P14740 37-767 limits assumed): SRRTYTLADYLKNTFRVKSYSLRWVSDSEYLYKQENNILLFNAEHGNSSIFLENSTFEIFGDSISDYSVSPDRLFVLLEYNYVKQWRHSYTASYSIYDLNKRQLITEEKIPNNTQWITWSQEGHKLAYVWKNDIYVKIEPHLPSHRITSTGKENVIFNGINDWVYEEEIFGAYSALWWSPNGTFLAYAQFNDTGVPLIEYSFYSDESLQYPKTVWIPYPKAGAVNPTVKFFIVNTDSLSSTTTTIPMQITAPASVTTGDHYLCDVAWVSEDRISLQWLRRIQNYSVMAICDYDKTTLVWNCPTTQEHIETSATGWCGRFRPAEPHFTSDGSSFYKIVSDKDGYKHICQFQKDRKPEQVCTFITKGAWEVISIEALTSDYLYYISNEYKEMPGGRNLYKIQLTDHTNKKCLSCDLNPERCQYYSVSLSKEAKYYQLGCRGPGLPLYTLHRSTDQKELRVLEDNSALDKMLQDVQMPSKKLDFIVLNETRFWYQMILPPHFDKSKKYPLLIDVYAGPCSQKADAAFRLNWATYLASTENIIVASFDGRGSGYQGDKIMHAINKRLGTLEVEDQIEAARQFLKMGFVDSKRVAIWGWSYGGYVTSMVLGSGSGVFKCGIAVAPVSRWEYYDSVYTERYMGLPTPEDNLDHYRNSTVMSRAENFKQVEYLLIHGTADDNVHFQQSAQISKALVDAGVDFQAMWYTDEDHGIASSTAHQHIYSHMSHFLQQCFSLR

`CC1(NCC(=O)N2CCC[C@H]2C#N)CCN(c2ccc(C#N)cn2)CC1` [Compound 207, (S)-1-[1-(5-Cyano-2-pyridyl)-4-methyl-4-piperidylamino]acetyl-2-pyrrolidinecarbonitrile dihydrochloride]: at DPP-IV, half-maximal inhibition (IC50) was put at 15 nM. Turning to `CCN(C)S(=O)(=O)c1ccc(NCC(C)(C)NCC(=O)N2CCC[C@H]2C#N)nc1` [Compound 513, (S)-1-{1-[5-(N-Ethyl-N-methylaminosulfonyl)-2-pyridylamino]-2-methyl-2-propylamino}acetyl-2-pyrrolidinecarbonitrile], in the assay on Wistar male rats [1], the “Blood-sugar level, 0 minute” value came out at 109 ± 6 mg/dL and the “Blood-sugar level, 30 minutes after glucose loading” value (“Blood-sugar level, 30 minutes” for short) is given as 252 ± 22 mg/dL. Turning to `N#Cc1ccc(NCC2(NC(=O)CN3CCC[C@H]3C#N)CCCC2)nc1` [Compound 602, 1-[(5-Cyanopyridin-2-ylamino)methyl]-1-[(S)-2-cyanopyrrolidinylacetylamino]cyclopentane fumarate], the 50% inhibitory concentration (IC50) – broadly, the concentration needed to halve the response being measured – against DPP-IV came out at 41 nM. The same measure, in the same setting: then `N#C[C@@H]1CCCN1C(=O)CNCCNC(=O)c1ccccc1` [Compound 403, (S)-1-(2-Benzamidoethylamino)acetyl-2-pyrrolidinecarbonitrile hydrochloride], with 124 nM; and `CC(C)(CNc1ccc(C(N)=O)cn1)NCC(=O)N1CCC[C@H]1C#N` [Compound 221, (S)-1-[1-(5-Carbamoyl-2-pyridylamino)-2-methyl-2-propylamino]acetyl-2-pyrrolidinecarbonitrile], with 27 nM; and `N#C[C@@H]1CCCN1C(=O)CNC1CCN(S(=O)(=O)c2ccccc2)CC1` [Compound 407, (S)-1-(1-Benzenesulfonyl-4-piperidylamino)acetyl-2-carbonitrile methanesulfonate], with 20 nM.

As to `N#Cc1cccnc1NCc1ccc(CNCC(=O)N2CCC[C@H]2C#N)cc1` [Compound 201, (S)-1-{4-[(3-Cyano-2-pyridyl)aminomethyl]benzylamino}acetyl-2-pyrrolidinecarbonitrile oxalate], at DPP-IV, the 50% inhibitory concentration (IC50) came to 392 nM. The same measure, in the same setting: with `CC(C)(CNc1ccc(S(=O)(=O)NCCO)cn1)NCC(=O)N1CCC[C@H]1C#N` [Compound 524, (S)-1-{1-{5-[N-(2-Hydroxyethyl)aminosulfonyl]-2-pyridylamino}-2-methyl-2-propylamino}acetyl-2-pyrrolidinecarbonitrile] the figure was 34 nM. On to `N#C[C@@H]1CCCN1C(=O)CNCCNc1cnccn1` [Compound 101, (S)-1-[2-(2-Pyrazinylamino)ethylamino]acetyl-2-pyrrolidinecarbonitrile dimethanesulfonate], for which, on DPP-IV, half-maximal inhibition (IC50) required 31 nM. In addition, the “blood sugar level, 0 minute” value with Wistar male rats [2] (0 minute (before glucose loading)) is 68 ± 2 mg/dL. The “blood sugar level, 30 minutes after glucose loading” value in the assay with Wistar male rats [2] (glucose 2 g/kg po, 30 minutes, ** p<0.01 Student's t-test) is 104 ± 4** mg/dL. `CC(C)(CNc1nccs1)NCC(=O)N1CCC[C@H]1C#N` [Compound 226, (S)-1-[2-Methyl-1-(2-thiazolylamino)-2-propylamino]acetyl-2-pyrrolidinecarbonitrile fumarate]: inhibition at DPP-IV was half-maximal at 18 nM (IC50). Same read-out and setting: with `CC(C)(CNc1ccc(C#N)cc1)NCC(=O)N1CCC[C@H]1C#N` [Compound 703, (S)-1-[1-(4-Cyanoanilino)-2-methyl-2-propylamino]acetyl-2-carbonitrile fumarate] the figure was 53 nM; with `CC1(NCC(=O)N2CCC[C@H]2C#N)CCN(c2ccccn2)CC1` [Compound 238, (S)-1-[4-Methyl-1-(2-pyridyl)-4-piperidylamino]acetyl-2-pyrrolidinecarbonitrile dihydrochloride], 11 nM; with `N#C[C@@H]1CCCN1C(=O)CNCCNc1cnc2ccccc2n1` [Compound 103, (S)-1-[2-(2-Quinoxalinylamino)ethylamino]acetyl-2-pyrrolidinecarbonitrile dihydrochloride], 61 nM. `CC1(NCC(=O)N2CCC[C@H]2C#N)CCN(c2ncccn2)CC1` [Compound 233, (S)-1-[4-Methyl-1-(2-pyrimidinyl)-4-piperidylamino]acetyl-2-pyrrolidinecarbonitrile] yielded a half-maximal inhibitory concentration (IC50) on DPP-IV of 19 nM. For the same compound, in the assay with Wistar male rats [1], the “Blood-sugar level, 0 minute” value was determined as 93 ± 15 mg/dL and the “Blood-sugar level, 30 minutes” value amounted to 183 ± 8 mg/dL.

The compound `CC1(NCC(=O)N2CCC[C@H]2C#N)CCN(c2ccc(S(=O)(=O)N3CC=CC3)cn2)CC1` [Compound 529, (S)-1-{4-Methyl-1-[5-(3-pyrrolin-1-ylsulfonyl)-2-pyridyl]-4-piperidylamino}acetyl-2-pyrrolidinecarbonitrile] gave an IC50 against DPP-IV of 26 nM. This lies in the double-digit nanomolar range. At DPP-IV, `CN(C)S(=O)(=O)c1ccc(NCC(C)(C)NCC(=O)N2CCC[C@H]2C#N)nc1` [Compound 501, (S)-1-{1-[5-(N,N-Dimethylaminosulfonyl)-2-pyridylamino]-2-methyl-2-propylamino}acetyl-2-pyrrolidinecarbonitrile] showed an IC50 of 23 nM. In the assay on Wistar male rats [1], the “Blood-sugar level, 0 minute” value was determined as 95 ± 7 mg/dL and the “Blood-sugar level, 30 minutes” value came out at 182 ± 16 mg/dL.
